Several values for one entry are separate records, joined by “and”; a condition that tells them apart may be missing. Identical values can stand only once. Like-named read-outs stand apart in the source and are kept apart here.

For assay [1], the system named is kidneys. The experiment in a line: Kidney protection / 68Ga-DOTATATE uptake in the kidneys, biodistribution studies in mice. Particulars: Amifostine alone at a dose of 0.63 mg/ml, co-administrated with 68Ga-DOTATATE
Format: in vivo. As to the method: The first i.v. injection of the composition may be scheduled 30 min prior to 68Ga-DOTATATE administration, while the next two injections may be performed at 15 min and 60 min, respectively, after the radiopeptide administration.
Kidney protection effects of Lysine-Arginine (12.4 mg/ml and 12.5 mg/ml, respectively) and commercially available Clinisol® and Gelofusine co-injected with ^68Ga-DOTATATE (40 uCi) are determined based on biodistribution studies in mice. Lysine-Arginine, Clinisol® and Gelofusine solutions were used as positive controls to determine the efficacies of compositions in accordance with embodiments of the invention.
Mice (n=5/group, male 6-8 weeks old) were given tail intravenous injection (200 ul) of respective solutions, 30 min prior to the administration of ^68Ga-DOTATATE, followed by further injections at 15 min and 1 hr post injection. An example of application schedule is illustrated in FIG. 1.
Mice were then sacrificed by CO2 asphyxiation, and kidneys were collected to determine the amounts of radiation absorbed, which are then compared to the total injected radioactive doses.
Mice (n=5/group, male 6-8 weeks old) were given tail intravenous injection (200 ul) of respective solutions, 30 min prior to the administration ^68Ga-DOTATATE, followed by further injections 15 min and 1 hr post injection, as described in Example 1.

Assay [2] concerns kidneys. Particulars: rats, intravenous co-injection of 400 mg/kg with 111In-DTPA-octretide; cited from earlier work.
In assay [3] the test system is kidneys. Particulars: patients, 111In-DTPA-octretreotide, cited from earlier work.

Consider `NCCCNCCSP(=O)(O)O` [Amifostine], for which the “kidney protection, Amifostine used alone” value in assay [1] is 12.24% and 12.2%.

For the compound `NCCCC[C@H](N)C(=O)O` [L-Lysine], the kidney protection in assay [2] is recorded as 40%.

Take `NCCCC[C@H](N)C(=O)O` [lysine]: the kidney protection is given as 17%±9% in assay [3] (25 g of lysine) and 44%±11% in assay [3] (infusion of 75 g of lysine).

The values are drawn from patent US20160143926A1, “COMPOSITIONS AND METHODS FOR THE PREPARATION OF KIDNEY PROTECTIVE AGENTS COMPRISING AMIFOSTINE AND AMINO ACIDS” (priority 2013, published 2016).
